# Assay results taken from article PMC8333425, “Discovery of a dual Ras and ARF6 inhibitor from a GPCR endocytosis screen” (Nature Communications, 2021).
# “And” between values parts separate entries of the source, which are not always exact repeats. Equal values may be shown once.
# Assays:
# [1] = target: H-Ras (Homo sapiens, UniProt P01112); assay: In vitro mant-GTP exchange assay, purified H-Ras with purified SOS1; type: biochemical; set-up: the cDNA of H-Ras (full length) was obtained by RT-PCR of HEK293SL; GST (N); host or cells: E. coli BL21
# Chain of H-Ras (P01112 whole entry): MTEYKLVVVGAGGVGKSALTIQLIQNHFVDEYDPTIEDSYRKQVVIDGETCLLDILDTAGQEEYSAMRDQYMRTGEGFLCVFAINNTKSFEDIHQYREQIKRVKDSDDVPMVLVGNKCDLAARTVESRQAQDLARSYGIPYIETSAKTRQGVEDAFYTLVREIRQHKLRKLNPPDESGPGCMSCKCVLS
# Protocol: Ras activity was assessed in a 384-well black bottom plate using the mant-GTP exchange factor assay that measures the uptake of the fluorescent nucleotide analog N-methylanthraniloyl-GTP (mant-GTP) into GTPases. For Ras activation, 2X exchange buffer, 1.66 μg of purified pGEX-6P-1-H-Ras or pGEX-6P-1-K-Ras-WT or pGEX-6P-1-K-Ras-Y32A were added per well in presence of DMSO, different concentrations of Rasarfin (as indicated) or 50 µM of compounds 21.4, 21.7, or 21.8. Using the Infinite 200 Pro plate reader (Tecan) with filters set at 360 nm and 440 nm for detecting the excitation and emissions, respectively, and temperature set at 20 °C, 5 readings were recorded every 5 s before the addition of either H2O, 40 mM EDTA or 0.66 μg purified SOS1. The fluorescence of mant-GTP uptake was measured every 30 sec for 30 min and quantified as the delta relative fluorescence units (RFU), which was calculated as the RFU post-addition minus the 5 averaged RFU pre-addition, per condition.
# [2] = tested on: AT1R; assay: Endosomal BRET assay of AngII-mediated AT1R internalization (AT1R-RlucII / Endo-rGFP; HTS, validation, concentration-response); type: cell-based, human
# Text: We performed a HT campaign in HEK293 cells using the bystander endosomal BRET sensor, which consists of a Renilla luciferase (RlucII)-tagged AT1R and an acceptor renilla GFP (rGFP) anchored to endosomes through an Endofin-FYVE (Endo-rGFP) domain[12]. AngII-mediated trafficking of AT1R to endosomes was screened against commercial libraries of ~115,000 small molecules (Fig. 1a and Supplementary Data 1). Because our assay is based on luminescence and fluorescence, we excluded 6610 compounds that quenched more than 50% of the luciferase or GFP signals. After excluding 5 AT1R antagonists, we conserved hit compounds blocking by more than 40%, as well as those potentiating by more than 100% receptor internalization. From this collection of 943 compounds, a second validation on AT1R internalization was performed using the same BRET assay, as well as on the agonist-mediated B2R internalization, this time using B2R-RlucII and Endo-rGFP. Only compounds that were revalidated on AT1R and affected B2R endocytosis were kept, which included forty hits (20 potentiators and 20 inhibitors) (Fig. 1b and Supplementary Data 2). We focused on inhibitors that were commercially available at the beginning of the project and tested their cell toxicity by microscopy, looking at cells expressing B2R tagged with YFP, which highlights cell contours and potential morphological changes, such as rounding up of cells following treatment with 50 μM of the compounds that may have indicated cell death. None of the inhibitors tested caused abnormal cell morphological changes when cells were treated with compounds as compared to DMSO-treated cells. Inhibitors were also assessed in terms of structure novelty, derivatization potential, and commercial availability of analogs (within 95–98% similarity from Tanimoto metric, Sci-Finder, https://scifinder-n.cas.org), for structure-activity relationship studies (SAR). They were scored 1–5, from best to worst. We excluded compounds with potential nucleophilic reactivity (e.g., Michael addition: compounds 7, 26, and 27), those reported to have biological activities (compounds 8, 20, 25, 30, and 35) and/or showing autofluorescence (compound 26). Compound 19 ranked high, but only had one other molecule with a similar structure available. Although other molecules could be interesting in their own rights as endocytosis inhibitors (e.g., compounds 1, 9, 11, 12, 13, 24, 31, and 37), we focused on compound 21 (Fig. 1c) because not only did it rank high in our analysis, but it was also the only compound with substantially more similar analogs commercially available at the time of these investigations. In the screen and the follow-up validation assay, 21 inhibited more than 50% AT1R internalization and more than 65% B2R internalization (Supplementary Data 2). […] Because β-arrestins are critically involved in GPCR endocytosis and trafficking in cells, we assessed 21’s effects on β-arrestins’ recruitment to AT1R and B2R at the PM using a BRET assay, as well as their trafficking into endosomes by microscopy.
# The chemical library used for initial screening was from Chembridge DiverSet™ (60,000 compounds), Maybridge HitFinder™ (16,000 compounds), Maybridge (selected, 16,000 compounds), SPECS (selected, 16000 compounds), Microsource Discovery Spectrum (2000 compounds), Biomol (natural products, 500 compounds), Prestwick (commercialized products, 1120 compounds), SIGMA LopacTM (1280 compounds) and internal collection (synthesized at Université de Montréal-IRIC, ~4000 compounds). Compounds were all assigned an Université de Montréal number (UM) for internal use. Screen was performed at IRIC HTS facility. KINOMEscan™ profiling was serviced by Eurofin/DiscoverX (San Diego, USA).
# HEK293SL cells were seeded at a density of 7.5 × 10^5 cells per 100-mm dish and 24 h later, transiently transfected as such. […]
# [3] = tested on: MDA-MB-231 cells; assay: Cell viability assay (MTT), MDA-MB-231; type: cell-based, human; settings: for cell viability (MTT signal): S_Fig12f, listed as Comp 21.8
# Protocol: MDA-MB-231 breast cancer cells and A549 lung carcinomas (1500 cells in 150 μl/well) were seeded overnight on a clear 96-well plate. Twenty-four hours later, the cells were treated with 0.1% DMSO, or different concentrations of Rasarfin (as indicated), or 10 µM of 21.4, 21.8 (MDA-MB-231 breast cancer cells) or Doxorubicin for the indicated times at 37 °C. At each time point, 10 μl of 5 mg/ml MTT was added to each well and the plates were incubated for an additional 4 h at 37 °C. The absorbance at 590 nm was measured by plate reader. Experiments were done in triplicate and repeated three times.
smiles,measurement,setting,value
CC(C)C(=O)N1CCN(c2ccc(NC(=O)c3cc4ccccc4o3)cc2Cl)CC1 [Compound 21],uptake of mant-GTP into purified H-Ras in presence of SOS1,[1]; different concentrations,inhibited in a dose-dependent manner the uptake of GTP into Ras
same,block of AT1R internalization,[2]; 21 at 50 µM,around 90%
same,"Mean Diff. DMSO vs. compound (Fig.8a, Dunnett's multiple comparisons test)",[2]; DMSO = 100,49.06
same,IC50,"[2]; Homo sapiens, AngII, into endosomes, read-out: IC50 for inhibition of AT1R internalization",10 µM
same,"AT1R internalization into endosomes, ligand-promoted BRET (Mean)",[2]; Log [Comp21] (M) -4.3,13.6921 percent compared to DMSO
same,"AT1R internalization into endosomes, ligand-promoted BRET (Mean)",[2]; Log [Comp21] (M) -4.6,24.3306 percent compared to DMSO
same,"AT1R internalization into endosomes, ligand-promoted BRET (Mean)",[2]; Log [Comp21] (M) -5,74.1156 percent compared to DMSO
same,"AT1R internalization into endosomes, ligand-promoted BRET (Mean)",[2]; Log [Comp21] (M) -5.3,91.7102 percent compared to DMSO
same,"AT1R internalization into endosomes, ligand-promoted BRET (Mean)",[2]; Log [Comp 21] (M) -6,95.8484 percent compared to DMSO
same,"AT1R internalization into endosomes, ligand-promoted BRET (Mean)",[2]; Log [Comp21] (M) -6.3,92.6647 percent compared to DMSO
same,"AT1R internalization into endosomes, ligand-promoted BRET (Mean)",[2]; Log [Comp 21] (M) -7,100.935 percent compared to DMSO
same,AT1R Confirmation Inhibition (%DMSO),"[2]; confirmation, two experiments, negative = potentiation",60.3475 %DMSO
same,AT1R Primary Screen Inhibition (%DMSO),"[2]; primary screen, negative = potentiation",53.93 %DMSO
same,inhibition of AT1R internalization,[2]; screen and follow-up validation assay,more than 50%
same,MDA-MB-231 cell viability (MTT),[3]; Doxorubicin 10 µM,cell viability was not affected
same,metabolic activity of MDA-MB-231 cells (MTT),"[3]; after 48 and 72 h of treatment, compared to DMSO",modestly decreased in a dose-dependent manner the metabolic activity of cancer cells
CCCC(=O)N1CCN(c2ccc(NC(=O)c3cc4ccccc4o3)cc2Cl)CC1 [Compound 21.8],"Ras exchange activity, mant-GTP loading into H-Ras with SOS1 (Fig. 8c)",[1]; 50 μM,inhibited Ras exchange activity
same,inhibition of AT1R internalization into endosomes (Fig. 8a),[2]; 50 μM,loss of compounds’ efficacy to inhibit AT1R internalization
same,metabolic activity of MDA-MB-231 cells (MTT),[3]; 10 µM,moderately decreasing the metabolic activity of cancer cells
same,cell viability (MTT signal),[3]; 24h,0.2449 and 0.2125 and 0.1916
same,cell viability (MTT signal),[3]; 48h,0.2769 and 0.2869 and 0.2058
same,cell viability (MTT signal),[3]; 72h,0.2794 and 0.3667 and 0.3826
